Tests used:
[1] = system: Vibrio percolans American Type Culture Collection (ATCC 8461); assay: disc-plate assay, zone of inhibition; assay type: cell-based
Experimental: Assays were run by the disc-plate procedure using 3/8 inch filter paper discs. The assay plates were prepared using Difco nutrient agar plus 2.0 g./l. Difco yeast extract at 10 ml. per plate. An overnight growth of the assay organism, Vibrio percolans American Type Culture Collection (ATCC 8461) in nutrient broth plus 0.2% yeast extract was diluted in sterile saline solution to a suspension having 40% transmittance at a wave length of 660 mμ. This suspension was added at 20 ml./liter of medium prior to pouring the plates.
The assay plates were held at 4° C. until used (5 day maximum). Following the application of the antibiotic-saturated assay discs the plates were incubated at 28° C. for a period of from 16 to 24 hours. Zones of inhibition were read as mm. diameter. They were used to determine relative potencies or, when compared with a purified reference standard, the potency in μg./ml. Assays of FR-02A in fermentation broths, mycelia and suspended nutrient matter separated from fermentation broths and in broths free of solids were performed after extracting the FR-02A into a suitable solvent. […] When such an assay is performed in a quantitative fashion, from 50 to 100 μg./ml. of antibiotic can be detected.

Bacillus sp. 633 = assay: Antibiotic Spectrum Profile, agar diffusion test; assay type: cell-based; conditions: 1 mg./ml., read-out: Diameters of Inhibition Zones
Experimental: To further characterize FR-02A in vitro, activity data for it was obtained using an antibiotic spectrum profile. The test involves applications of a droplet of antibiotic approximately 0.015 ml. on the surface of seeded complex agar plates. […] The results are reported in Table 1 in terms of mm. of inhibition zones.

[2] = system: Staphylococcus aureus 108; assay: Antibiotic Spectrum Profile, agar diffusion test; assay type: cell-based; conditions: 1 mg./ml., read-out: Diameters of Inhibition Zones
Bacillus subtilis 964 = assay: Antibiotic Spectrum Profile, agar diffusion test; assay type: cell-based; conditions: 1 mg./ml., read-out: Diameters of Inhibition Zones
[3] = system: Brucella bronchiseptica 965; assay: microbe, parasite or virus in culture; assay type: cell-based; conditions: Bordetella bronchiseptica, 965, read-out: Diameters of Inhibition Zones
[4] = system: Salmonella gallinarum 1287; assay: Antibiotic Spectrum Profile, agar diffusion test; assay type: cell-based; conditions: Salmonella enterica, 1 mg./ml., read-out: Diameters of Inhibition Zones
Ps. stutzeri 1231 = assay: Antibiotic Spectrum Profile, agar diffusion test; assay type: cell-based; conditions: Stutzerimonas stutzeri, 1 mg./ml., read-out: Diameters of Inhibition Zones
[5] = system: Klebsiella pneumoniae 1264; assay: Antibiotic Spectrum Profile, agar diffusion test; assay type: cell-based; conditions: 1 mg./ml., read-out: Diameters of Inhibition Zones
[6] = system: Corynebacterium pseudodiphtheriticum 261; assay: Antibiotic Spectrum Profile, agar diffusion test; assay type: cell-based; conditions: 1 mg./ml., read-out: Diameters of Inhibition Zones
S. aureus 3032 = assay: Antibiotic Spectrum Profile, agar diffusion test; assay type: cell-based; conditions: Staphylococcus aureus, 1 mg./ml., read-out: Diameters of Inhibition Zones
Strep. faecium 2820 = assay: Antibiotic Spectrum Profile, agar diffusion test; assay type: cell-based; conditions: Enterococcus faecium, 1 mg./ml., read-out: Diameters of Inhibition Zones
Proteus vulgaris 838 = assay: Antibiotic Spectrum Profile, agar diffusion test; assay type: cell-based; conditions: 1 mg./ml., read-out: Diameters of Inhibition Zones
[7] = toxicity studies in noninfected mice; assay type: in vivo; conditions: for Toxicity, Tolerated / Toxicity, Toxic: IP
Experimental: *Values in the table are expressed in mg./mouse. Both infections and
therapeutic doses of FR-02A were administered intraperitoneally. FR-02A
was administered at time of infection and again 6 hours later.
**Toxicity studies of FR-02A in noninfected mice indicate that two doses
of 2.5 mg./mouse, 6 hours apart are tolerated; but higher doses i.e. 5 to […]

M. gallisepticum = M. gallisepticum air sacculitis in broilers; assay type: in vivo
E. acervulina = assay: in vitro activity; assay type: cell-based
Bordetella = assay: in vitro activity; assay type: cell-based
Streptococcus faecum = assay: in vitro activity; assay type: cell-based
Streptococcusagalactiae = assay: in vitro activity; assay type: cell-based
species of Pasteurella = assay: in vitro activity; assay type: cell-based
[8] = system: Salmonealla gallinarum (MB 1287); assay: in vitro activity; assay type: cell-based
E. coli (MB 1418) = assay: in vitro activity; assay type: cell-based
[9] = system: Pseudomonas stutzeri (MB 1231); assay: in vitro activity; assay type: cell-based
[10] = system: Pseudomonas stutzeri (MB 2765); assay: in vitro activity; assay type: cell-based
[11] = system: Staphylococcus aureus (MB 703); assay: in vitro activity; assay type: cell-based
[12] = system: Pseudomonas aeruginosa (MB 3210); assay: in vitro activity; assay type: cell-based

CC=CC=CC1OC(O)(C(CC)C(=O)NCC=CC=C(C)C(OC)C(C)C2OC(C=CC=CC=C(C)C(=O)c3c(O)ccn(C)c3=O)C(O)C2O)C(O)C(OC2OC(C)C(OC3OC(C)C(OC)C(O)C3OC)C(OC)C2O)C1(C)C (centres unmarked) [FR-02A, efrotomycin]
zone of inhibition at 200 µg/mL ([1]; Comamonas terrigena, ATCC8461, 200 μg./ml., 3/8 inch discs, read-out: zones of inhibition): 16 mm | activity ([1]; Vibrio percolans (ATCC 8461)): Activity was also found | zone of inhibition at 1000 µg/mL (Bacillus sp. 633): 18 mm | zone of inhibition at 1000 µg/mL [2]: 11 mm | zone of inhibition at 1000 µg/mL (Bacillus subtilis 964): 19 mm | zone of inhibition at 1000 µg/mL [3]: 18 mm | zone of inhibition at 1000 µg/mL [4]: 13 mm | zone of inhibition at 1000 µg/mL (Ps. stutzeri 1231): 10 mm | zone of inhibition at 1000 µg/mL [5]: 16 mm | zone of inhibition at 1000 µg/mL [6]: 27 mm | zone of inhibition at 1000 µg/mL (S. aureus 3032): 12 mm | zone of inhibition at 1000 µg/mL (Strep. faecium 2820): 20 mm | zone of inhibition at 1000 µg/mL (Proteus vulgaris 838): 18 mm | Toxicity, Tolerated ([7]; Table 2 line Proteus vulgaris): 5.0 mg./mouse | Toxicity, Toxic ([7]; Table 2 line Proteus vulgaris): 5.0 mg./mouse | Toxicity, Tolerated ([7]; Table 2 line Strep. pyogenes): 1.25 mg./mouse | Toxicity, Toxic ([7]; Table 2 line Strep. pyogenes): 5.0 mg./mouse | toxicity in vivo ([7]; in mice, in words): low toxicity | tolerated dose ([7]; noninfected mice, two doses 6 hours apart): 2.5 mg./mouse | ED50 (M. gallisepticum; Mycoplasmoides gallisepticum, air sacculitis in broilers): 40 to 100 mg/kg | efficacy against M. gallisepticum air sacculitis (M. gallisepticum; subcutaneously, broilers): efficacious | in vitro activity (E. acervulina): effective | in vitro activity (Bordetella): effective | in vitro activity (Streptococcus faecum): effective | in vitro activity (Streptococcusagalactiae): effective | in vitro activity (species of Pasteurella): effective | activity [8]: Activity was also found | activity (E. coli (MB 1418)): Activity was also found | activity [9]: Activity was also found | activity [10]: Activity was also found | activity [11]: Activity was also found | activity [12]: Activity was also found

Reference: patent US4065356A, “Production of antibiotic FR-02A (efrotomycin) by streptomyces lactamdurans” (priority 1977, dated 1977)
